Earlier results in publication PMC10182713 (South African Journal of Botany, 2023).

System: multidrug-resistant TB
Conditions: ref Favela-Hernández et al. (2012); cited from earlier work

SMILES	Activity against multidrug-resistant TB in words
COc1cc(-c2oc3c(OC)c(OC)cc(O)c3c(=O)c2OC)ccc1O [5,4-dihydroxy-3,7,8,3-tetramethoxyflavone]	active
COc1cc(O)c2c(=O)c(OC)c(-c3ccc(O)cc3)oc2c1OC [5,4-dihydroxy 3,7,8-trimethoxyflavone]	active
